Reference: the supplement of paper PMC12463676, “Small-molecule dissolution of stress granules by redox modulation benefits ALS models” (Nature Chemical Biology, 2025)

What was measured:
potassium arsenate = compound: O=[As]([O-])(O)O.[K+] [potassium arsenate]; assay: thermal stability z-score vs DMSO; higher = more thermally stabilized by treatment; details: HeLa; arsenate concentration 1 mM
Procedure: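 Cellular thermal proteome profiling in HeLa cells treated with 1 mM arsenate for 1 h (DMSO pretreatment), heated to ten temperatures (37-66.3 °C). Soluble protein was quantified by TMT mass spectrometry relative to DMSO controls; the thermal stability score was transformed to a z-score; mean of n = 3 experiments.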

lipoamide = compound: NC(=O)CCCCC1CCSS1 [lipoamide]; assay: as above; details: HeLa, lipoamide concentration 100 µM
Procedure: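 Cellular thermal proteome profiling in HeLa cells. Cells were treated with 100 µM lipoamide for 1 h, with or without 1 mM arsenate for a further 1 h, then heated to ten temperatures (37-66.3 °C), and soluble protein was quantified by TMT mass spectrometry relative to 0.1% DMSO controls. The thermal stability score (sum of log2 fold changes minus the abundance score) was transformed to a z-score; mean of n = 3 experiments.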

[1] = arsenate co-treatment: 1 mM arsenate 1 h
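Also: each temperature applied for 3 min, abundance score taken as mean log2 fold change at the two lowest temperatures, z-score obtained by mean subtraction and division by SD.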

UniProt Q96PK6, sequence (Q96PK6 whole entry): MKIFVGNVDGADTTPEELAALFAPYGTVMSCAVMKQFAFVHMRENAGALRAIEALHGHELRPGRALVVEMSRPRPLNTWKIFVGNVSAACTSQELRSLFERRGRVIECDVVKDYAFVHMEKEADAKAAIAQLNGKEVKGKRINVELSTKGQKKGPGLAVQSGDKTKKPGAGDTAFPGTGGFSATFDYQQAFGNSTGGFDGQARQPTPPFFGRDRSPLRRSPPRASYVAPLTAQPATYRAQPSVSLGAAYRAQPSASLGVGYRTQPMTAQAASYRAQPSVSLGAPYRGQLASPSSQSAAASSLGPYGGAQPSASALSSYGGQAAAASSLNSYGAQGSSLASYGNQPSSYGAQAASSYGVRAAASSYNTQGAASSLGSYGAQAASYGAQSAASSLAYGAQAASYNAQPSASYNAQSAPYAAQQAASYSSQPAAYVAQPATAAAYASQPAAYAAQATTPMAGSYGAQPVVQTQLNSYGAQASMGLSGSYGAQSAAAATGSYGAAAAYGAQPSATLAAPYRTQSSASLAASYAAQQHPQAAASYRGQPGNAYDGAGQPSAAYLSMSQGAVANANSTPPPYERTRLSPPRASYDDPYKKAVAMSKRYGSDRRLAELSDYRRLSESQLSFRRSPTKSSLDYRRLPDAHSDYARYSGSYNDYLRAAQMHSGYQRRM
UniProt Q9HD67, sequence (Q9HD67 whole entry): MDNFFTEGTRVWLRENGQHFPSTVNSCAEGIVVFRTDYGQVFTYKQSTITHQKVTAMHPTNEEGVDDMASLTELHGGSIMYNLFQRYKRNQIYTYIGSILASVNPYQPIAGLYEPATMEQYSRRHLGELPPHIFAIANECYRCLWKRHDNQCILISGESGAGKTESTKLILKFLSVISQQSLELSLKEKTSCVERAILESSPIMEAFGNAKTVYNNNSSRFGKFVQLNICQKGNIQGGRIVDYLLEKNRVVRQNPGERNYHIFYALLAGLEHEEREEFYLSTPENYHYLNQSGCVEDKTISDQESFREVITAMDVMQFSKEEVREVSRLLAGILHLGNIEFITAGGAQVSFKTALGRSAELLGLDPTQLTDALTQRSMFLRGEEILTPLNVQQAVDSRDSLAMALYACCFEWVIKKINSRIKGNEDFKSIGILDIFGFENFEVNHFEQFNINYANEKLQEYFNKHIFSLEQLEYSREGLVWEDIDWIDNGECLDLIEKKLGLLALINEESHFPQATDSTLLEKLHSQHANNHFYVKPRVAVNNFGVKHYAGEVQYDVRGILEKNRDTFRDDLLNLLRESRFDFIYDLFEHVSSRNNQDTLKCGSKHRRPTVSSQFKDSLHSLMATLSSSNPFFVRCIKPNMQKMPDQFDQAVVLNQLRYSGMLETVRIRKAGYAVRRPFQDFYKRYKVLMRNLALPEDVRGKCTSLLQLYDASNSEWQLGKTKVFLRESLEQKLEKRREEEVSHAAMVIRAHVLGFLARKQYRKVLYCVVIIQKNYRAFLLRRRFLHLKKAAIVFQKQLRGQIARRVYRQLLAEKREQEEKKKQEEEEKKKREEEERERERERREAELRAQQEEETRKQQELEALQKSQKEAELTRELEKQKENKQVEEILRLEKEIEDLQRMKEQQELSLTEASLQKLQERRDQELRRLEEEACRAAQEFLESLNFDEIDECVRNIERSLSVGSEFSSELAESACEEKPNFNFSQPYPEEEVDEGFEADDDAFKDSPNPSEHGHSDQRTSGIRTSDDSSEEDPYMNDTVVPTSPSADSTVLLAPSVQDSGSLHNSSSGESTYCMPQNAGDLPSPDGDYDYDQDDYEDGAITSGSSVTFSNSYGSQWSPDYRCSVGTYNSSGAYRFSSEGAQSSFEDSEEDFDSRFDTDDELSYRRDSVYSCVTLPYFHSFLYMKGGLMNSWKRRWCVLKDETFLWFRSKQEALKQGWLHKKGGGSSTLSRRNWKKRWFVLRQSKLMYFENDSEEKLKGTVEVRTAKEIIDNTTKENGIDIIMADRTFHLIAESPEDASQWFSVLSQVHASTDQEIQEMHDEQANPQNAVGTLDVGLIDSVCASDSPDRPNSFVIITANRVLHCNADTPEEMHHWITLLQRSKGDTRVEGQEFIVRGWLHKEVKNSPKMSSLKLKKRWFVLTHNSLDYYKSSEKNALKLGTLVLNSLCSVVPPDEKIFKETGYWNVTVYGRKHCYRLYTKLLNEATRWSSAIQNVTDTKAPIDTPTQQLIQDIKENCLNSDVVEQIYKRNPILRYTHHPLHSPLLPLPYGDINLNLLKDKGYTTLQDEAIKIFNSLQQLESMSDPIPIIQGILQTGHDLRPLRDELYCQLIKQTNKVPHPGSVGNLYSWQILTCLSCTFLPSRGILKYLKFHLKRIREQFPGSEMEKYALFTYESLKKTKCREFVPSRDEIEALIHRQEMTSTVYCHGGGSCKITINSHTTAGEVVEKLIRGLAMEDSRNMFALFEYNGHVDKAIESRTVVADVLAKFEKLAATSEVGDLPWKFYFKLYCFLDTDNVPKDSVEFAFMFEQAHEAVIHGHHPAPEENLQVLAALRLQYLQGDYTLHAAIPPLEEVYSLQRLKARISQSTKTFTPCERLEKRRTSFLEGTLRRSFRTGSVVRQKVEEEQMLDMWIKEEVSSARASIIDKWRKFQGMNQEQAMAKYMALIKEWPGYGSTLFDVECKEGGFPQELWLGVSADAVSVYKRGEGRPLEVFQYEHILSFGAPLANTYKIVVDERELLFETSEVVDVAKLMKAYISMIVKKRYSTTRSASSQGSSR
UniProt Q9NWT6, sequence (Q9NWT6 whole entry): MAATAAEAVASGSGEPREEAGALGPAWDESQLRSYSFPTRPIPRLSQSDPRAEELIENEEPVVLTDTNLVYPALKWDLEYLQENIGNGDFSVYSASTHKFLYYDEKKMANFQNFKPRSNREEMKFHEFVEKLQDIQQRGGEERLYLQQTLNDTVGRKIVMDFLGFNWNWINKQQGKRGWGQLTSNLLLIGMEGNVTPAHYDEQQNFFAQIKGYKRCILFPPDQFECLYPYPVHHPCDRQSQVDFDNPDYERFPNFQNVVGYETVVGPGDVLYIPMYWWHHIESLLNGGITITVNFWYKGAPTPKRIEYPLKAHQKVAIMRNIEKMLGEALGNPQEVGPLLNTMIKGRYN
UniProt Q9H4B0, sequence (Q9H4B0 whole entry): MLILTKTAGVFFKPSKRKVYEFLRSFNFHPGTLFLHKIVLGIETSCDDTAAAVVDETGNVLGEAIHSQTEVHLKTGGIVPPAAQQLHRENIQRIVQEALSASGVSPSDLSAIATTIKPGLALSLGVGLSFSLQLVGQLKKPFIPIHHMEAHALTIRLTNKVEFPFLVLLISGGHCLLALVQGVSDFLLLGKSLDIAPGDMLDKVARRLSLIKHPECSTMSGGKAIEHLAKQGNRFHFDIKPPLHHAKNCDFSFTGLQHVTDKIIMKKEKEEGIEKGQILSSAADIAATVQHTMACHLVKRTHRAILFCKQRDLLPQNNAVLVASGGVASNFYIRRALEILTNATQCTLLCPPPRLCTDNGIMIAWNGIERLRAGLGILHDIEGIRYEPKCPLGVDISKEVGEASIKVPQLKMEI
UniProt Q13214, sequence (Q13214 whole entry): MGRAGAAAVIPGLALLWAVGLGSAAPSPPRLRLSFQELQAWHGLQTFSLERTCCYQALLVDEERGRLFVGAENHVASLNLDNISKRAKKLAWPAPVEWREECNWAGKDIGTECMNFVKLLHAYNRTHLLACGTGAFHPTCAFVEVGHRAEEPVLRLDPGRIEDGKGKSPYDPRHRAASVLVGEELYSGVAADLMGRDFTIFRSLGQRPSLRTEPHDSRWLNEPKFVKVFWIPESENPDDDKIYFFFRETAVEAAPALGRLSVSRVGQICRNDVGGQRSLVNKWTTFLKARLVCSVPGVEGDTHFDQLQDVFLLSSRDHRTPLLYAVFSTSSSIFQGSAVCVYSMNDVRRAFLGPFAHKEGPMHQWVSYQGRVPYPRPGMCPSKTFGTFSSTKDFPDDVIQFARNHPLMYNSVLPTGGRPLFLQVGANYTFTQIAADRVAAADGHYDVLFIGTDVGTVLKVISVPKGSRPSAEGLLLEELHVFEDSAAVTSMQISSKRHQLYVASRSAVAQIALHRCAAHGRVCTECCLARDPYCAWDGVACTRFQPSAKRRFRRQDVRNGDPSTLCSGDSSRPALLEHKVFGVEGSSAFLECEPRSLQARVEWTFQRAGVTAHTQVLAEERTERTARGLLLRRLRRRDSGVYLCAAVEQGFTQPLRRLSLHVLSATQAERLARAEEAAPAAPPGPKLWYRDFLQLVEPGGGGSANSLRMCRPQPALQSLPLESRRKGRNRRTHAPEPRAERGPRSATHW
UniProt Q969K3, sequence (Q969K3 whole entry): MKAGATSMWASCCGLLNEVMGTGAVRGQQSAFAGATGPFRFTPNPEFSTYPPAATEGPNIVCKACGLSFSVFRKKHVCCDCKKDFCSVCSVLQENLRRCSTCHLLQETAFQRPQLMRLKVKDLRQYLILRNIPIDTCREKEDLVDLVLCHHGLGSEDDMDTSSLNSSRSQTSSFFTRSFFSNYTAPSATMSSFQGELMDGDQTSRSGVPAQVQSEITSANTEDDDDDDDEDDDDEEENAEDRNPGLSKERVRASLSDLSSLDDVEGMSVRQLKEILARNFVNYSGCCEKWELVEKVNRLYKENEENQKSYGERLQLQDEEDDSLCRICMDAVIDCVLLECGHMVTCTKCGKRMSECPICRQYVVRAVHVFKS
UniProt Q9Y624, sequence (Q9Y624 whole entry, looked up, stated change not applied): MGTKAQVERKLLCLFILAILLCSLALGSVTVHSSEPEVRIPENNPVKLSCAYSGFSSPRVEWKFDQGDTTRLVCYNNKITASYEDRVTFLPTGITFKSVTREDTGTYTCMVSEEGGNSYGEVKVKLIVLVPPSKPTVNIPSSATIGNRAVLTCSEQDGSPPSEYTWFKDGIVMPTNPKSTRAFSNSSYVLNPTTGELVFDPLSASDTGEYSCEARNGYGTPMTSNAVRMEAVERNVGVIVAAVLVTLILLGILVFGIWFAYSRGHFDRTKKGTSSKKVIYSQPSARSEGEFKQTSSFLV
UniProt P63165, sequence (P63165 whole entry): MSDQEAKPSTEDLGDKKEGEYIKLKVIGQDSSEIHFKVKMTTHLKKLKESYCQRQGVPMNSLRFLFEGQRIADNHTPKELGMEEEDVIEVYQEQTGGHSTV

Row | Target | thermal stability z-score (potassium arsenate) | thermal stability z-score (lipoamide; [1]) | thermal stability z-score (lipoamide; arsenate co-treatment: none)
1 | MRPS27 (UniProt Q92552) | 0.189 | -0.204 | -0.193
2 | RB1 (UniProt P06400) | -0.64 | 0.306 | 0.229
3 | RPP25L (UniProt Q8N5L8) | 0.245 | 0.36 | 0.117
4 | BPHL (UniProt Q86WA6) | -1.21 | -0.428 | -0.368
5 | NOTCH2 (UniProt Q04721) | -0.309 | -1.45 | -1.57
6 | FER (UniProt P16591) | 0.326 | 0.209 | 0.182
7 | PPP6R1 (UniProt Q9UPN7) | -0.671 | -0.476 | -0.635
8 | RPL27A (UniProt P46776) | -0.482 | 0.419 | 0.401
9 | REEP5 (UniProt Q00765) | 0.354 | 0.359 | 1
10 | MKNK1 (UniProt Q9BUB5) | -1.53 | -0.146 | -0.928
11 | HNRNPH1 (UniProt P31943) | -0.9 | -0.365 | 0.482
12 | SF3B3 (UniProt Q15393) | -0.681 | 1.49 | 0.828
13 | F11R (UniProt Q9Y624) | 0.151 | 0.865 | 0.653
14 | VKORC1 (UniProt Q9BQB6) | 0.856 | -1.71 | -1.59
15 | NAA40 (UniProt Q86UY6) | 0.0387 | -0.126 | 0.2
16 | SDF2L1 (UniProt Q9HCN8) | 0.265 | -2.27 | -1.73
17 | NGLY1 (UniProt Q96IV0) | 0.0507 | -0.149 | -0.0587
18 | RPL26 (UniProt P61254) | -0.347 | 1.18 | 0.347
19 | HIF1AN (UniProt Q9NWT6) | 0.463 | -0.806 | -0.553
20 | NDUFA12 (UniProt Q9UI09) | 0.611 | -0.0618 | 0.06
21 | DIS3 (UniProt Q9Y2L1) | -1.52 | -0.727 | -0.422
22 | RIF1 (UniProt Q5UIP0) | -0.353 | 0.0548 | -0.0166
23 | LRRC47 (UniProt Q8N1G4) | 1.06 | 0.175 | 0.38
24 | UBTF (UniProt P17480) | 0.532 | 0.142 | 0.184
25 | EIF5A (UniProt P63241) | -0.005 | -0.138 | 0.0123
26 | SNTB2 (UniProt Q13425) | -0.227 | 0.14 | -0.309
27 | PSMD10 (UniProt O75832) | -0.327 | -0.817 | 0.0147
28 | MYO10 (UniProt Q9HD67) | 0.432 | 0.223 | 0.44

Row | Target | thermal stability z-score (potassium arsenate) | thermal stability z-score (lipoamide; [1]) | thermal stability z-score (lipoamide; arsenate co-treatment: none)
29 | GSTCD (UniProt Q8NEC7) | -0.0694 | 0.682 | 0.492
30 | PPP1R15B (UniProt Q5SWA1) | -0.0349 | -0.102 | -0.0322
31 | RAB21 (UniProt Q9UL25) | 0.119 | 0.0174 | 0.118
32 | DPYSL2 (UniProt Q16555) | -0.691 | 0.645 | 0.115
33 | RNASEH2A (UniProt O75792) | 0.138 | 0.0654 | 0.493
34 | MCOLN1 (UniProt Q9GZU1) | -1.27 | -0.724 | -0.559
35 | TFG (UniProt Q92734) | 0.134 | 0.607 | 0.76
36 | SUMO1 (UniProt P63165) | 1.09 | -0.294 | -0.0784
37 | TMEM43 (UniProt Q9BTV4) | 0.701 | -3.42 | -3.08
38 | SEMA3B (UniProt Q13214) | 0.997 | -1.02 | -1.61
39 | MINK1 (UniProt Q8N4C8) | -0.0337 | -0.526 | 0.0558
40 | MTERF4 (UniProt Q7Z6M4) | -0.0404 | -0.0828 | 0.0195
41 | HECTD1 (UniProt Q9ULT8) | 0.641 | -0.353 | -0.164
42 | UNK (UniProt Q9C0B0) | -0.364 | 0.117 | 0.0195
43 | NCOR2 (UniProt Q9Y618) | 0.138 | 0.182 | 0.227
44 | RNF34 (UniProt Q969K3) | -0.392 | -0.0298 | 0.0211
45 | RBPJ (UniProt Q06330) | -0.676 | 0.252 | -0.0841
46 | PYROXD1 (UniProt Q8WU10) | -1.15 | 0.569 | 0.443
47 | NOP56 (UniProt O00567) | 0.516 | 0.756 | -0.0331
48 | FAF1 (UniProt Q9UNN5) | 0.738 | 0.777 | 0.869
49 | OSGEPL1 (UniProt Q9H4B0) | -0.494 | 0.0734 | -0.263
50 | P4HA1 (UniProt P13674) | 1.27 | -4.31 | -3.57
51 | RBM14 (UniProt Q96PK6) | -0.803 | -0.169 | -0.0944
52 | PSMD8 (UniProt P48556) | -0.197 | 0.814 | 0.532
53 | UBE2V2 (UniProt Q15819) | -0.0935 | 0.177 | -0.304
54 | UMPS (UniProt P11172) | -1.02 | 0.111 | 0.297
55 | TUT1 (UniProt Q9H6E5) | -0.479 | 0.0998 | -0.00913
